Columns and labels:
[1] = Peptide incorporation into LNP (Peptide:Lipid ratio; BCA or CBQCA protein quantification); format: physicochemical
Method: (§1) Lipid concentrations were determined by measuring total cholesterol using the Cholesterol E enzymatic assay kit from Wako Chemicals USA (Richmond, Va.).
Quantification of protein/peptide was performed with the use of either the BCA Protein Assay (Pierce) or the CBQCA Protein Quantitation Kit (Invitrogen) according to the manufacturer's instructions.

[2] = LNP particle size and polydispersity by dynamic light scattering; format: physicochemical
[3] = RNA or antisense oligonucleotide encapsulation efficiency (Quant-iT Ribogreen RNA / Oligreen ssDNA assays); format: physicochemical
Method: The RNA or antisense oligonucleotide encapsulation efficiency was determined using the Quant-iT Ribogreen RNA or Oligreen ssDNA Assays, respectively (Life Technologies, Burlington, ON). Briefly, LNP was incubated at 37° C. for 10 min in the presence or absence of 1% Triton X-100 (Sigma-Aldrich, St. Louis, Mo.) followed by the addition of the Ribogreen or Oligreen reagent. The fluorescence intensity (Ex/Em: 480/520 nm) was determined and samples treated with Triton X-100 represent total nucleic acid while untreated samples represent unencapsulated nucleic acid.
To prepare the LNPs, ionizable lipid, DSPC, cholesterol and PEG-DMPE were dissolved in ethanol. The siRNA was dissolved in pH 4.0-6.2 buffer composed of 10-50 mM acetate, succinate or citrate. In select cases, 10-50 mM 4-(2-Hydroxyethyl)piperazine-1-ethanesulfonic acid (HEPES) or 2-(N-Morpholino)ethanesulfonic acid (MES) buffer was used. LNP were prepared by rapidly mixing the lipid components in ethanol (in molar ratio of 50/10/38.5/1.5 of […]) with nucleic acids in aqueous buffer at a volumetric flow rate ratio of 1:3 (ethanol to aqueous, combined flow rate >12 mL/min) at room temperature. Typically, siRNA/lipids ratios were targeted for 0.056 wt/μmol. The product was then dialyzed against 1× phosphate-buffered saline (PBS) at pH 7.4 for 24 hours to remove residual ethanol and to raise the pH. PBS was refreshed after 4 hours.

[4] = HA incorporation into LNP (HA:Lipid ratio); format: physicochemical; conditions: LNP containing ionizable lipid and HA (8-15 kDa)
Method: as §1
Hyaluronic acid was used as an example of anionic cargos. LNPs were prepared as described in Example 2 containing HA with a molecular weight of 8-15 kDa.

factor VII (FVII) = assay: LNP-siRNA activity in the mouse Factor VII model; format: in vivo; conditions: C57Bl/6 mice, i.v. tail vein, 0.03-0.3 mg/kg siRNA, 24 hours post-injection
Method: Lipid nanoparticle (LNP) formulations containing cationic lipids of the disclosure and FVII siRNA were injected via a tail vein in C57Bl/6 wild-type mice and the levels of FVII in plasma was measured post injection. The mice were injected with LNP-siRNA at doses of 0.03 (left bar), 0.1 (middle bar) and 0.3 mg/kg (right bar). The cationic lipids incorporated in the LNPs were INT-A001, INT-A002, INT-A003 and INT-A007.
LNPs prepared as described in Example 2 containing siRNA against factor VII (FVII) were diluted with PBS such that injection volumes were maintained at 10 mL/kg body weight and administered (based on siRNA concentration) intravenously via tail vein in 6 to 8 weeks old female C57Bl/6 mice (Charles River Laboratories, Wilmington, Mass.). At 24 hours post-injection, animals were euthanized and blood was collected via intracardiac sampling. Blood samples were allowed to coagulate at 4° C. overnight and the serum was separated followed by centrifugation for 15 min at 12,000 rpm. The serum FVII levels were determined using the Biophen VII chromogenic assay (Aniara, Mason, Ohio) according to the protocol of the manufacturer.

[5] = system: luciferase expressing human prostate cells (22Rv1); assay: LNP-siRNA luciferase gene silencing in cultured 22Rv1 cells; format: cell-based; conditions: 1 ug/mL siRNA, 16-24 hr
Method: Cells were treated with lipid nanoparticle (LNP) formulations containing ionizable lipids of the disclosure and Luciferase siRNA at concentrations of 1.0 (left bar), 0.3 (middle bar) and 0.1 μg/mL (right bar). The level of luminescence was measured post treatment. The ionizable lipids incorporated in the LNPs were 2-(dimethylamino)ethyl (±)-syn-9,10-dilinoleoxystearate (INT-A001), 3-(diethylamino)propyl (±)-syn-9,10-dilinoleoxystearate (INT-A002), 3-(dimethylamino)propyl (±)-syn-9,10-dilinoleoxystearate (INT-A003), 2-(diethylamino)ethyl (±)-syn-9,10-dilinoleoxystearate (INT-A004), 3-(dimethylamino)propyl (12R)-linoleoxyoleate (INT-A005), 3-(diethylamino)propyl (syn-9,10,12R)-trilinoleoxystearate (INT-A006), and 3-(diethylamino)propyl (±)-syn-9,10-bis(2-hexyldecanoyloxy)stearate (INT-A007).
The level of luminescence was measured 16-24 hr post treatment and the relative luminescence is ranked from highest (left) to lowest (right).
The activity of the ionizable lipids in vitro was evaluated in luciferase expressing human prostate cells (22Rv1). LNPs containing siRNA against firefly luciferase were prepared as described in Example 2. […] Equal amounts of Steady-Glo reagent (Promega) was added to each sample and the level of luminescence was determined using a Synergy LX plate reader (BioTek). […]

[6] = LNP containing ionizable lipid and a 2.0 kDa acidic peptide (net charge -3)
[7] = LNP containing ionizable lipid and a 4.2 kDa acidic peptide (net charge -3)
[8] = LNP containing ionizable lipid and HA (8-15 kDa)
[9] = LNP containing ionizable lipid and antisense oligonucleotide
[10] = LNP containing ionizable lipid and siRNA

SMILES: CCCCCCCCC(CCCCCC)C(=O)O[C@@H](CCCCCCCC)[C@@H](CCCCCCCC(=O)OCCCN(CC)CC)OC(=O)C(CCCCCC)CCCCCCCC (mixture of isomers) [INT-A007, 3-(Diethylamino)propyl (±)-syn-9,10-bis(2-hexyldecanoyloxy)stearate]
- Peptide:Lipid [1, 6]: 0.075 wt/wt
- Peptide:Lipid [1, 7]: 0.162 wt/wt
- Particle Diameter [2, 8]: 58 nm
- Polydispersity index (PDI) [2, 8]: 0.065
- Particle Diameter [2, 6]: 79 nm
- Polydispersity index (PDI) [2, 6]: 0.019
- Particle Diameter [2, 7]: 52 nm
- Polydispersity index (PDI) [2, 7]: 0.049
- Particle Diameter [2, 9]: 55 nm
- Polydispersity index (PDI) [2, 9]: 0.070
- Particle Diameter [2, 10]: 59 nm
- Polydispersity index (PDI) [2, 10]: 0.021
- Encapsulation Efficiency [3, 9]: 84%
- Encapsulation Efficiency [3, 10]: 84%
- HA:Lipid [4]: 0.096 wt/wt
- Activity in mediating FVII gene-silencing (residual serum FVII levels) (factor VII (FVII)): active in mediating gene-silencing
- Relative activity in silencing of the firefly luciferase gene (luminescence) [5]: most active
